In patent EP0453247A2, “Anti-viral compounds” (THE WELLCOME FOUNDATION LIMITED, priority 1990, dated 1991):

Legend:
VZV = VZV plaque reduction assay; type: cell-based; settings: Human alphaherpesvirus 3; plaque reduction in monolayers of MRC5 or Detroit 532 cells; read-out: VZV 1C50
Method: Antiviral testing against VZV was determined by measuring the ability of the compound to reverse the cytophathic effect of VZV infection.
VZV is assayed in monolayers of either MRC5 cells (human embryonic lung) or Detroit 532 cells (human foreskin fibroblasts) in multiwell trays. Activity of compounds is determined in the plaque reduction assay, in which a cell monolayer is infected with a suspension of VZV. Plaque numbers of each concentration are expressed as percentage of the control and a dose-response curve is drawn. From this curve the 50% inhibitory concentration (IC₅₀) is estimated.

[1] = Cell growth inhibition assay (MTT uptake); type: cell-based; settings: monkey, Vero cells, 50% inhibition of cell viability at 96 hours, read-out: Toxicity CCID50(Vero)
Method: Cell toxicity is assessed in a cell growth inhibition assay. Subconfluent cultures of Vero cells grown on 96-well microtiter dishes are exposed to different dilutions of drug, and cell viability determined daily on replicate cultures using uptake of a tetrazolium dye (MTT). The concentration required for a 50% inhibition of cell vaibility at 96 hours is termed CCID₅₀.

CC#Cc1cn([C@@H]2O[C@H](CO)[C@@H](O)[C@H]2F)c(=O)nc1N [2'-Deoxy-2'-fluoro-5-prop-1-ynylcytidine, 2′-Deoxy-2′-fluoro-5-prop-1-ynylcytidine]
IC50 (VZV): 2.3 µM
CC50 at 96 h [1]: > 500 µM

CC#Cc1cn([C@@H]2O[C@H](CO)[C@@H](O)[C@H]2F)c(=O)[nH]c1=O [2'-Deoxy-2'-fluoro-5-prop-1-ynyluridine, 2′-Deoxy-2′-fluoro-5-prop-1-ynyluridine]
IC50 (VZV): 2.6 µM
CC50 at 96 h [1]: > 500 µM

C#Cc1cn([C@@H]2O[C@H](CO)[C@@H](O)[C@H]2F)c(=O)nc1N [2'-Deoxy-5-ethynyl-2'-fluorocytidine, 2′-Deoxy-5-ethynyl-2′fluorocytidine]
IC50 (VZV): 5.3 µM
CC50 at 96 h [1]: > 500 µM

C#Cc1cn([C@@H]2O[C@H](CO)[C@@H](O)[C@H]2F)c(=O)[nH]c1=O [2'-Deoxy-5-ethynyl-2'-fluorouridine, 2′-Deoxy-5-ethynyl-2′-fluoro uridine]
IC50 (VZV): 2.16 µM
CC50 at 96 h [1]: 156 µM
